From ChEMBL document CHEMBL3991601, “The target landscape of clinical kinase drugs” (Science, 2017)
Active and inactive are the calls of the source. For most assays here, no stated cut-off is given here; in the data, actives have a measured Kd and inactives only a lower limit.

Assays:
[1] = target: Serine/threonine-protein kinase SIK3 (Homo sapiens, UniProt Q9Y2K2)
[2] = target: 26S proteasome regulatory subunit 6B (Homo sapiens, UniProt P43686)
[3] = target: Mitogen-activated protein kinase kinase kinase kinase 5 (Homo sapiens, UniProt Q9Y4K4)
Mitogen-activated protein kinase kinase kinase kinase 5, sequence (Q9Y4K4 whole entry): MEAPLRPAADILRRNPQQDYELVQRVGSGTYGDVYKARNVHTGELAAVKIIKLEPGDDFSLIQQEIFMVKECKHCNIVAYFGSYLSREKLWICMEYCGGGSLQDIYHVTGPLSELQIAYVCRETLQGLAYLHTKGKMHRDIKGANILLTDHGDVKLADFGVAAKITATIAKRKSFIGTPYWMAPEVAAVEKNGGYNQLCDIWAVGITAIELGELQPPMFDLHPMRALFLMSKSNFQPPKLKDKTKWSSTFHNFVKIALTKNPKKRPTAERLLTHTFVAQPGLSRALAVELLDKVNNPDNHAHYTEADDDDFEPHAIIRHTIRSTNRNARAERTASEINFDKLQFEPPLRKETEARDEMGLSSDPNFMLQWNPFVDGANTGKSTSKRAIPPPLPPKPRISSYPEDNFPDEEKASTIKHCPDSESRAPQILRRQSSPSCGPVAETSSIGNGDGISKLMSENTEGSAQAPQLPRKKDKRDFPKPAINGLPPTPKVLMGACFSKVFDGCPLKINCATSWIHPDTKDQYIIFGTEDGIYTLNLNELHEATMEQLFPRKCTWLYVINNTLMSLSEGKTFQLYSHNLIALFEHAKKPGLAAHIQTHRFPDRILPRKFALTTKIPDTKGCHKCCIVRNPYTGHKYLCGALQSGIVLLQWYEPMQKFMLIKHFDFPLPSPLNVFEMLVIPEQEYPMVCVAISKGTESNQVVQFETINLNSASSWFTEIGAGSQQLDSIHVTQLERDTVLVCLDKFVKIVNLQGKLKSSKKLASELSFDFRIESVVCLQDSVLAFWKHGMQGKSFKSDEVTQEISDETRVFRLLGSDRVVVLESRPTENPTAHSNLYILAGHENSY

[4] = target: Citron Rho-interacting kinase (Homo sapiens, UniProt O14578)
Citron Rho-interacting kinase, sequence (O14578 whole entry): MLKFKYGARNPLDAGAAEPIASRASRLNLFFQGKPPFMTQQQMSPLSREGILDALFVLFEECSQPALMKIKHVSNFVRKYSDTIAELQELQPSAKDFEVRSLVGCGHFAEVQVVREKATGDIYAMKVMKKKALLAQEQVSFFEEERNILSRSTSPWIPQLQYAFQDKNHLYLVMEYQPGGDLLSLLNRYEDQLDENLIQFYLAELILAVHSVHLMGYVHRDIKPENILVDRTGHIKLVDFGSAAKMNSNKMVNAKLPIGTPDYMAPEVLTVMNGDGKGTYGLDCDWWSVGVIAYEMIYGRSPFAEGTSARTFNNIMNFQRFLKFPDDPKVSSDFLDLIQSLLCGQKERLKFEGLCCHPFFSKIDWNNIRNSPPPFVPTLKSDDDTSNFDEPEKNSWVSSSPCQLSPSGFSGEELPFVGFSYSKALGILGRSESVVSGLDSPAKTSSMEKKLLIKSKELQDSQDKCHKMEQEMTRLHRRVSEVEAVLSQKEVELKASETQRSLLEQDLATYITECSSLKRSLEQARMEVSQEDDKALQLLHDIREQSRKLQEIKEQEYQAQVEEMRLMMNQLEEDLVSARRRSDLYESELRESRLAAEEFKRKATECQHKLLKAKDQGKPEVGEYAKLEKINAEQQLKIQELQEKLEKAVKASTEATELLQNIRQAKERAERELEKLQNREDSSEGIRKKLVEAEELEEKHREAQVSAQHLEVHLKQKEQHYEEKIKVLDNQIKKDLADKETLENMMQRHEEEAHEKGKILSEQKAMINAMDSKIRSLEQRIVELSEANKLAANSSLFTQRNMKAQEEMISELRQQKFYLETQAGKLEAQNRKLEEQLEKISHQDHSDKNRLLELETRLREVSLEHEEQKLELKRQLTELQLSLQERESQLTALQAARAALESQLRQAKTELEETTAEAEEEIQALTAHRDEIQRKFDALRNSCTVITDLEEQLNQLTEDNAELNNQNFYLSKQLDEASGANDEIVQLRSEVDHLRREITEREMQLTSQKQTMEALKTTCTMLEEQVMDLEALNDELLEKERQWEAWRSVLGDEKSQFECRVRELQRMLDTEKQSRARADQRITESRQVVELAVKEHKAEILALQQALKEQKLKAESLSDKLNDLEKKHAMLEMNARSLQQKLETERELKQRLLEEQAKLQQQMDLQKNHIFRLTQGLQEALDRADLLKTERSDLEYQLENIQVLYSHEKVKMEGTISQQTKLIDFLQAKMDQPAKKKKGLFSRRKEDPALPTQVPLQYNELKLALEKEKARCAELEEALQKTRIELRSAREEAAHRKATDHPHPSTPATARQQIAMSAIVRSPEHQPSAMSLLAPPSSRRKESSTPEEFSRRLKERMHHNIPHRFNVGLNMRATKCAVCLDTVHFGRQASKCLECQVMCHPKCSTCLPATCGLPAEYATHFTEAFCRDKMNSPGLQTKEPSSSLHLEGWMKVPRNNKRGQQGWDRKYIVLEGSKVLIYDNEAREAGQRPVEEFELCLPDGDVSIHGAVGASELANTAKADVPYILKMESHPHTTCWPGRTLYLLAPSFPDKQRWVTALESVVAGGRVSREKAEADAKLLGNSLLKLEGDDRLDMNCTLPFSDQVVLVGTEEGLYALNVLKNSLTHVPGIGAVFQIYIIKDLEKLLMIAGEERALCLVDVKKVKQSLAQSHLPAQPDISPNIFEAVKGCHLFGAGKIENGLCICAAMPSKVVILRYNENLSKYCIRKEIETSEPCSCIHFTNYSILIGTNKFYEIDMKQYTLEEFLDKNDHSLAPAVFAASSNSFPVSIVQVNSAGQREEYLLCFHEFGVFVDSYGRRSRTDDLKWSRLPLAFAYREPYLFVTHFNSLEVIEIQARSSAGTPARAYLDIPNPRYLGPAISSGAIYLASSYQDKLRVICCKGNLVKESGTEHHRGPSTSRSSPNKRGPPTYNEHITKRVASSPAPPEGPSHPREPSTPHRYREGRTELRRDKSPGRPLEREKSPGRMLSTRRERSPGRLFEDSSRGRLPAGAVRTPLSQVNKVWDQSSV

[5] = target: Mitogen-activated protein kinase kinase kinase kinase 4 (Homo sapiens, UniProt O95819)
[6] = target: Midasin (Homo sapiens, UniProt Q9NU22)
[7] = target: Bone morphogenetic protein receptor type-1A (Homo sapiens, UniProt P36894)
Bone morphogenetic protein receptor type-1A, sequence (P36894 whole entry): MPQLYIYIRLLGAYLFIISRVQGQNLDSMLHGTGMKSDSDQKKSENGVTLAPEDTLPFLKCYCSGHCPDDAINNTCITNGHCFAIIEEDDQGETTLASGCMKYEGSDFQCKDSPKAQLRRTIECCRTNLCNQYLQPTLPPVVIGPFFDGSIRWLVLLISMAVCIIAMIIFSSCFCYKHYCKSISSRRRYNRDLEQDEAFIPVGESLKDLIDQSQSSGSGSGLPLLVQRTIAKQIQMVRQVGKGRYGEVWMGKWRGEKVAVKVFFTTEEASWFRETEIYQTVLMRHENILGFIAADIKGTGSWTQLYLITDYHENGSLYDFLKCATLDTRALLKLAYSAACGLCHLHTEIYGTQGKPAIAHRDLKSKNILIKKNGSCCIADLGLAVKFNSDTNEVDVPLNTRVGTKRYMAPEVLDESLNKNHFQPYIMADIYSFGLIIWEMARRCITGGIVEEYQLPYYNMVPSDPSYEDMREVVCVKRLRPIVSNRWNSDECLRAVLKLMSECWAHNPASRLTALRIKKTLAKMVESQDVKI

[8] = target: T1, Interleukin-1 receptor-associated kinase 4 (Homo sapiens, UniProt Q9NWZ3)
T1 sequence (Q9NWZ3 whole entry): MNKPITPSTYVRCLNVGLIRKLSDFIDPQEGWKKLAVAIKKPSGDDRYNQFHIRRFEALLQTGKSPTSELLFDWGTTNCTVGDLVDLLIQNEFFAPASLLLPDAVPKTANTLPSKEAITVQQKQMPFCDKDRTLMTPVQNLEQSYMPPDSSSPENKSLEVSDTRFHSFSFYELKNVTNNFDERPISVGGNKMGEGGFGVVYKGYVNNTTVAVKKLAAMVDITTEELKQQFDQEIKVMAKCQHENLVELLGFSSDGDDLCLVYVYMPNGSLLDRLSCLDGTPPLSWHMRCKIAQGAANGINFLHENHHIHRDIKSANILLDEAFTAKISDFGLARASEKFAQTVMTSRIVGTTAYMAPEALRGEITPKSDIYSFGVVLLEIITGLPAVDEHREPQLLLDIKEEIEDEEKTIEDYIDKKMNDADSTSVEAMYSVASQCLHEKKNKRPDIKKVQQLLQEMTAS

[9] = target: T2, cGMP-dependent protein kinase 1 (Homo sapiens, UniProt Q13976)
T2 sequence (Q13976 whole entry): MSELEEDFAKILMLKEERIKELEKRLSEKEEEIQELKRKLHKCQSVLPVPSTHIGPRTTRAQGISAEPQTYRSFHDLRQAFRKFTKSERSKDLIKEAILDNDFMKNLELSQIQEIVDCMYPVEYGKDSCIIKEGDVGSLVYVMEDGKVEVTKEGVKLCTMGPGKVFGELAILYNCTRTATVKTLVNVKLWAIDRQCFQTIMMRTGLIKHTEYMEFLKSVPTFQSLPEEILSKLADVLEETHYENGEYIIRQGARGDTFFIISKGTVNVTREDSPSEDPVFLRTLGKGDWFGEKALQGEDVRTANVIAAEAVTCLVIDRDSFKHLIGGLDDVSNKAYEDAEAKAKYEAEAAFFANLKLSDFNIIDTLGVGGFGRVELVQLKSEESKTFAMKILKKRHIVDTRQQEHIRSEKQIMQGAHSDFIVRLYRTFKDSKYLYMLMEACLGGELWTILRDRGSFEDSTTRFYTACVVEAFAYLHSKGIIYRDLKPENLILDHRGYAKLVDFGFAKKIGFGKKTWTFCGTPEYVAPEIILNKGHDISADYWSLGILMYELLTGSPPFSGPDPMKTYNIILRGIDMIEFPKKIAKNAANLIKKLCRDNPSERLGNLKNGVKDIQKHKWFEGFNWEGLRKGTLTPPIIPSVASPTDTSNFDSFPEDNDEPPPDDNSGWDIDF

[10] = target: T3, Peroxisomal acyl-coenzyme A oxidase 3 (Homo sapiens, UniProt O15254)
T3 sequence (O15254 whole entry): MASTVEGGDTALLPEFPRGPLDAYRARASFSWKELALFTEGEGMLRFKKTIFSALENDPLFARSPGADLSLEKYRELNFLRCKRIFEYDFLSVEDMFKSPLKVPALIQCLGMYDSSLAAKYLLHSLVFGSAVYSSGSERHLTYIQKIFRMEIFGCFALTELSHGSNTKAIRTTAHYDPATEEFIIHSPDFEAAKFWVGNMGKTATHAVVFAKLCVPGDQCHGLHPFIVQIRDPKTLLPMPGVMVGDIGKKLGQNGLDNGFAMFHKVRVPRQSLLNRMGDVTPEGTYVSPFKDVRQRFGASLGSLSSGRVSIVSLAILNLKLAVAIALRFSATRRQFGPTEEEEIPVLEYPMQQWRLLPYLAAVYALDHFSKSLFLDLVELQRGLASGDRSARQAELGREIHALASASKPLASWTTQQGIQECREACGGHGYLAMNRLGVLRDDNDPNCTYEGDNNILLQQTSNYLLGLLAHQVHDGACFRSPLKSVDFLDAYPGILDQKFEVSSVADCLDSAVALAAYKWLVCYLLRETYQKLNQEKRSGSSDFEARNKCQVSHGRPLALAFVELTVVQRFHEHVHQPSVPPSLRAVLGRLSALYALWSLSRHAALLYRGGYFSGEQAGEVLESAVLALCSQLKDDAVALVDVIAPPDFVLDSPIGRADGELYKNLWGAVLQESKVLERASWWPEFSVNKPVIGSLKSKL

[11] = target: Epithelial discoidin domain-containing receptor 1 (Homo sapiens, UniProt Q08345)
[12] = target: Cyclin-dependent kinase 7 (Homo sapiens, UniProt P50613)
Cyclin-dependent kinase 7, sequence (P50613 whole entry): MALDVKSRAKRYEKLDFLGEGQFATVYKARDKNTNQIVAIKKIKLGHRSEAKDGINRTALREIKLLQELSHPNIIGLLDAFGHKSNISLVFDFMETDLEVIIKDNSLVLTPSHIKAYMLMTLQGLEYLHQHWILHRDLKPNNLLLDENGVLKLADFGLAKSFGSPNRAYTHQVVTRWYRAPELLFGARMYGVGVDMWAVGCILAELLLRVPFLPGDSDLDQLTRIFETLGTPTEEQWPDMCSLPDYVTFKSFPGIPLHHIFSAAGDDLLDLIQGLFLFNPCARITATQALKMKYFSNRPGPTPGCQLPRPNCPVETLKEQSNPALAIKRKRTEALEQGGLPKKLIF

[13] = target: T4, Serine/threonine-protein kinase ICK (Homo sapiens, UniProt Q9UPZ9)
T4 sequence (Q9UPZ9 whole entry): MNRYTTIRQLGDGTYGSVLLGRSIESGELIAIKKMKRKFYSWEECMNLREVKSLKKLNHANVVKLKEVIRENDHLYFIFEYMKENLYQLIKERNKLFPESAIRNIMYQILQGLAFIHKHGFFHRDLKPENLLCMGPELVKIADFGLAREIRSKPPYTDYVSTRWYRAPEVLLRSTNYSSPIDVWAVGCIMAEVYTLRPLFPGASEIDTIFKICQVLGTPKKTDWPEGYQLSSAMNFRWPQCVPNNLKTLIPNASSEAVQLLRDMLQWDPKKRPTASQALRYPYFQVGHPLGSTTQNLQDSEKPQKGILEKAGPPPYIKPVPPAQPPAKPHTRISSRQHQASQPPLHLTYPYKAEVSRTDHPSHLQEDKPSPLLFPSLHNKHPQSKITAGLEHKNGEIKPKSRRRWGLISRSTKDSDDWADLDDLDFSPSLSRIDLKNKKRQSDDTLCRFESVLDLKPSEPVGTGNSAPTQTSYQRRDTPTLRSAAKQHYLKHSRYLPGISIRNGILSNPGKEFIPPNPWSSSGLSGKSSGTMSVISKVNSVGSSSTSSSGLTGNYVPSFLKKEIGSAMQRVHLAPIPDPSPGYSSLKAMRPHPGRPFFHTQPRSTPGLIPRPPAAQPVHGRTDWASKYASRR

Serine/threonine-protein kinase SIK3, sequence (Q9Y2K2 whole entry): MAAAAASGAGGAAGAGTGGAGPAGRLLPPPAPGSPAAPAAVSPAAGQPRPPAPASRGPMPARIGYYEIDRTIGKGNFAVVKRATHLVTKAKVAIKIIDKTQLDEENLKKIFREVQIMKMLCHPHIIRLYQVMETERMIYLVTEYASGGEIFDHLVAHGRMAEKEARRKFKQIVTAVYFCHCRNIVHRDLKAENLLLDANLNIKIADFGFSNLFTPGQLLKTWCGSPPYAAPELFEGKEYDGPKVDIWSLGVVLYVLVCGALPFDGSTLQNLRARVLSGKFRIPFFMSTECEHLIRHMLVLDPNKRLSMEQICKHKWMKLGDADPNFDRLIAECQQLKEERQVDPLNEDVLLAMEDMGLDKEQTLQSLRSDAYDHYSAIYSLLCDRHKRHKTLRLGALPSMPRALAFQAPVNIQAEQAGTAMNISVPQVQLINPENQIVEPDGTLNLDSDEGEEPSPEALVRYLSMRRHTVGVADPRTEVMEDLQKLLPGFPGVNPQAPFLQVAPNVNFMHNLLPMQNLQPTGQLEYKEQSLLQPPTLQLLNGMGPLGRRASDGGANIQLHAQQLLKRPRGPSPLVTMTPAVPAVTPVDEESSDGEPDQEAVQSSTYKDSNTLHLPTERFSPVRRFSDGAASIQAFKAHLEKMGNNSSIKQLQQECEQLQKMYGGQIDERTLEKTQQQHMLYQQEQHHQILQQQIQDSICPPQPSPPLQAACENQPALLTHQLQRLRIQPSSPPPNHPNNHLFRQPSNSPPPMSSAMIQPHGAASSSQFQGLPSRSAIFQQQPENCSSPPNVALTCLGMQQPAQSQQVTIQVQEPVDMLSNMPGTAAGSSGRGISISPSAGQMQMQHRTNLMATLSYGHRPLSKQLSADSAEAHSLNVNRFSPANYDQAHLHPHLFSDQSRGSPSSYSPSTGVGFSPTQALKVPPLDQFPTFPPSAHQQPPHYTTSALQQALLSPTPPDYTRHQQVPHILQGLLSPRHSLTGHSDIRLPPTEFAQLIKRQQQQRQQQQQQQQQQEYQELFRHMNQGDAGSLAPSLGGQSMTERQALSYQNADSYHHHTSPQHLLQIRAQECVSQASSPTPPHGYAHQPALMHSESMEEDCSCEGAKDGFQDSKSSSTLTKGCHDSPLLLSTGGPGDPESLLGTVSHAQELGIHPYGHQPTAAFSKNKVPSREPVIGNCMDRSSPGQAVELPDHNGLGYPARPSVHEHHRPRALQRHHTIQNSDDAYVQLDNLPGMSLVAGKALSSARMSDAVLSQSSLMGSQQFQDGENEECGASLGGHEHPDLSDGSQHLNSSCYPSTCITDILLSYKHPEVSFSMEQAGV

Kd [1] | Kd [2] | Kd [3] | Kd [4] | Kd [5] | Kd [6] | Kd [7] | Kd [8] | Kd [9] | Kd [10] | Kd [11] | Kd [12] | Kd [13] | SMILES
> 30 µM (inactive) | > 30 µM (inactive) | > 30 µM (inactive) | > 30 µM (inactive) | > 30 µM (inactive) | > 30 µM (inactive) | > 30 µM (inactive) | > 30 µM (inactive) | > 30 µM (inactive) | > 30 µM (inactive) | > 30 µM (inactive) | > 30 µM (inactive) | – | O=C(NC[C@H](O)CO)c1ccncc1Nc1ccc(I)cc1F [PIMASERTIB]
> 30 µM (inactive) | > 30 µM (inactive) | > 30 µM (inactive) | > 30 µM (inactive) | > 30 µM (inactive) | – | > 30 µM (inactive) | > 30 µM (inactive) | > 30 µM (inactive) | > 30 µM (inactive) | > 30 µM (inactive) | > 30 µM (inactive) | > 30 µM (inactive) | O=C(NOC[C@H](O)CO)c1ccc(F)c(F)c1Nc1ccc(I)cc1F [MIRDAMETINIB]
> 30 µM (inactive) | > 30 µM (inactive) | > 30 µM (inactive) | > 30 µM (inactive) | > 30 µM (inactive) | > 30 µM (inactive) | > 30 µM (inactive) | > 30 µM (inactive) | > 30 µM (inactive) | > 30 µM (inactive) | > 30 µM (inactive) | > 30 µM (inactive) | – | S=C(NCc1ccc2c(c1)OCO2)N1CCN(c2ncnc3c2oc2ccccc23)CC1 [AMUVATINIB]
> 30 µM (inactive) | > 30 µM (inactive) | > 30 µM (inactive) | 0.798 µM (active) | 1.32 µM (active) | > 30 µM (inactive) | > 30 µM (inactive) | > 30 µM (inactive) | > 30 µM (inactive) | > 30 µM (inactive) | > 30 µM (inactive) | – | 0.053 µM (active) | CCN1CCN(Cc2ccc(Nc3ncc(F)c(-c4cc(F)c5nc(C)n(C(C)C)c5c4)n3)nc2)CC1 [ABEMACICLIB]
> 30 µM (inactive) | > 30 µM (inactive) | > 30 µM (inactive) | 3.66 µM (active) | > 30 µM (inactive) | > 30 µM (inactive) | > 30 µM (inactive) | > 30 µM (inactive) | > 30 µM (inactive) | > 30 µM (inactive) | > 30 µM (inactive) | > 30 µM (inactive) | – | O=c1[nH]c([C@@H]2CCCN2)nc2c1oc1ccc(Cl)cc12
> 30 µM (inactive) | > 30 µM (inactive) | > 30 µM (inactive) | > 30 µM (inactive) | > 30 µM (inactive) | > 30 µM (inactive) | > 30 µM (inactive) | > 30 µM (inactive) | > 30 µM (inactive) | > 30 µM (inactive) | – | > 30 µM (inactive) | > 30 µM (inactive) | CNC(=O)c1cccc(-c2ccc3c(N4CCOC[C@@H]4C)nc(N4CCOC[C@@H]4C)nc3n2)c1 [VISTUSERTIB]
> 30 µM (inactive) | > 30 µM (inactive) | – | – | > 30 µM (inactive) | > 30 µM (inactive) | > 30 µM (inactive) | > 30 µM (inactive) | > 30 µM (inactive) | > 30 µM (inactive) | > 30 µM (inactive) | > 30 µM (inactive) | > 30 µM (inactive) | COc1cccc(Nc2ncnn3ccc(CN4CC[C@@H](N)[C@H](O)C4)c23)c1 [BMS-690514]

SMILES | Kd [1] | Kd [2] | Kd [3] | Kd [4] | Kd [5] | Kd [6] | Kd [7] | Kd [8] | Kd [9] | Kd [10] | Kd [11] | Kd [12] | Kd [13]
CC(C)CC(=O)Nc1[nH]nc2c1CN(C(=O)C1CCN(C)CC1)C2(C)C [PHA-793887] | > 30 µM (inactive) | > 30 µM (inactive) | > 30 µM (inactive) | > 30 µM (inactive) | > 30 µM (inactive) | > 30 µM (inactive) | > 30 µM (inactive) | > 30 µM (inactive) | – | > 30 µM (inactive) | > 30 µM (inactive) | 0.008 µM (active) | > 30 µM (inactive)
Cc1c(NC(=O)OC[C@@H]2COCCN2)cn2ncnc(Nc3ccc4c(cnn4Cc4cccc(F)c4)c3)c12 [AC-480] | > 30 µM (inactive) | > 30 µM (inactive) | > 30 µM (inactive) | > 30 µM (inactive) | > 30 µM (inactive) | > 30 µM (inactive) | > 30 µM (inactive) | > 30 µM (inactive) | > 30 µM (inactive) | > 30 µM (inactive) | > 30 µM (inactive) | > 30 µM (inactive) | –
NC[C@@](O)(c1ccc(Cl)cc1)c1ccc(-c2cn[nH]c2)cc1 [AT-13148] | > 30 µM (inactive) | > 30 µM (inactive) | > 30 µM (inactive) | > 30 µM (inactive) | > 30 µM (inactive) | > 30 µM (inactive) | > 30 µM (inactive) | > 30 µM (inactive) | > 30 µM (inactive) | > 30 µM (inactive) | > 30 µM (inactive) | > 30 µM (inactive) | –
CCc1nc(C(N)=O)c(Nc2ccc(N3CCC(N4CCN(C)CC4)CC3)c(OC)c2)nc1NC1CCOCC1 [GILTERITINIB] | > 30 µM (inactive) | > 30 µM (inactive) | 3.12 µM (active) | 2.35 µM (active) | 0.202 µM (active) | > 30 µM (inactive) | – | – | > 30 µM (inactive) | > 30 µM (inactive) | > 30 µM (inactive) | > 30 µM (inactive) | > 30 µM (inactive)
CNC(=O)c1ccc(Nc2ncc(C(F)(F)F)c(NCc3nccnc3N(C)S(C)(=O)=O)n2)cc1 [DEFACTINIB] | > 30 µM (inactive) | > 30 µM (inactive) | > 30 µM (inactive) | > 30 µM (inactive) | > 30 µM (inactive) | > 30 µM (inactive) | > 30 µM (inactive) | > 30 µM (inactive) | > 30 µM (inactive) | > 30 µM (inactive) | > 30 µM (inactive) | – | > 30 µM (inactive)
